One assay concerns the target T1, XIAP BIR-3 (Homo sapiens, UniProt P98170).
T1 construct: 40 nM of the respective IAP BIR3
In words: Fluorescence polarization binding to XIAP BIR-3 with labeled peptide AbuRPF-K(5-Fam)-NH2. To be noted: XIAP BIR-3, 40 nM BIR3, 5 nM labeled peptide, 15 min RT, pH 7.5; read-out: XIAP, nM (binding affinity KD, as range). As to the method: (§1) The binding affinities of the compounds are reported as a KD value (μM). Briefly, various concentrations of test peptides were mixed with 5 nM of the fluorescently labeled peptide (i.e., a mutated N-terminal Smac peptide-AbuRPF-K(5-Fam)-NH2) and 40 nM of the respective IAP BIR3 for 15 min at RT in […] of 0.1M Potassium Phosphate buffer, pH 7.5 containing […] bovine g-globulin. Following incubation, the polarization values (mP) were measured on a Victor2V™ (available from PerkinElmer® Life Sciences) using a 485 nm excitation filter and a 520 nm emission filter. The reported binding affinities (KD values) are supplied as ranges (A=<0.1 μM, B=0.1 μM to 1 μM, C=>1 μM to 10 μM, D=>10 μM).
(In fluorescence polarisation assays a small probe gives low polarisation when free and higher when bound to something large.)

The subject of the next assay is SK-OV-3 cells. The experiment in a line: MTT cell growth inhibition assay in ovarian cancer cell line SK-OV-3. In kind it is cell-based. Conditions: Homo sapiens, 72 hrs incubation, read-out: SKOV3, nM (CC50, concentration giving 50% cell survival, as range). As to the method: Compounds of the invention also were tested for their ability to inhibit the growth of an ovarian cancer cell line, SK-OV-3. A known assay previously used for measuring cell growth (as described in Hansen, M. B., Nielsen, S. E., and Berg, K. (1989) J. Immunol. Methods 119, 203-210 and incorporated herein by reference in its entirety) was used. Briefly, SK-OV-3 cells are seeded in 96-well plates in McCoy's medium containing 10% fetal bovine serum albumin (5,000 per well) and incubated overnight at 37° C. The next day, test compounds are added at various concentrations (0.003-10 μM) and the plates are incubated at 37° C. for an additional 72 hrs. This incubation time was considered to be optimal for measuring inhibitory effects of the different compounds tested. 50 microliters of 5 mg/mL MTT reagent is added to each well and the plates are incubated at 37° C. for another three (3) hours. At the end of the three (3) hour incubation period, 50 microliters of DMSO is added to each well to dissolve cells and the optical density (OD) of the wells is measured with a microplate reader (Victor^2 1420™, Wallac, Finland) at 535 nm. Cell survival (CS) was calculated using the following equation: CS=(OD treated well/mean OD control wells)×100%.
The CC50 (reported in the following tables), is defined as the drug concentration that results in 50% cell survival (CS), and is derived by calculating the point where the dose-response curve crosses the 50% CS point using GraphPad Prism® graphing software. The reported CC50 values are supplied as ranges (A=<0.1 μM, B=0.1 μM to 1 μM, C=>1 μM to 10 μM, D=>10 μM).

In the next assay the target is T2, cIAP-1 BIR-3 (Homo sapiens, UniProt Q13490).
T2 construct: 40 nM of the respective IAP BIR3
T2 sequence (Q13490 253-363 limits assumed): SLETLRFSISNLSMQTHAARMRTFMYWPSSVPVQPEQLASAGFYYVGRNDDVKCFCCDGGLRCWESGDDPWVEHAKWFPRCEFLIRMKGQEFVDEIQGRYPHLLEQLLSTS
The experiment in a line: Fluorescence polarization binding to cIAP-1 BIR-3 with labeled peptide AbuRPF-K(5-Fam)-NH2. Conditions: cIAP-1 BIR-3, 40 nM BIR3, 5 nM labeled peptide, 15 min RT, pH 7.5; read-out: cIAP1, nM (binding affinity KD, as range). As for the experimental part:
as §1

T1 sequence (P98170 241-356 limits assumed): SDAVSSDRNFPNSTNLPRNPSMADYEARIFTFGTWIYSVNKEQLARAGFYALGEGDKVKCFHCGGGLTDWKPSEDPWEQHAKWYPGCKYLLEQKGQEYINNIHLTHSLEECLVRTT

The term Kd denotes the free concentration of one partner at which half of the binding sites on the other are occupied at equilibrium, for simple one-to-one binding. `CN[C@@H](C)C(=O)N[C@H](C(=O)N1CC[C@@H]2[C@H]1[C@@H](C(=O)NC1CCCCC1)CN2S(C)(=O)=O)C1CCCCC1` [Example 5, 4-[2-Cyclohexyl-2-(2-methylamino-propionylamino)-acetyl]-1-methanesulfonyl-octahydro-pyrrolo[3,2-b]pyrrole-3-carboxylic acid cyclohexylamide]: the figures for the dissociation constant Kd at XIAP BIR-3 and at cIAP-1 BIR-3 were 1000 to 10000 nM and below 100 nM, respectively. The CC50 with SK-OV-3 cells lay in the range of 1000 to 10000 nM.

In the case of `CN[C@@H](C)C(=O)N[C@H](C(=O)N1CC[C@@H]2[C@H]1[C@@H](C(=O)N[C@@H]1CCCc3ccccc31)CN2C(C)=O)C(C)(C)C` [Example 34, 1-Acetyl-4-[3,3-dimethyl-2-(2-methylamino-propionylamino)-butyryl]-octahydro-pyrrolo[3,2-b]pyrrole-3-carboxylic acid (1,2,3,4-tetrahydro-naphthalen-1-yl)-amide], the Kd on XIAP BIR-3 and at cIAP-1 BIR-3 was below 100 nM throughout. For the same compound, the CC50 in the assay on SK-OV-3 cells was below 100 nM.

Regarding `CN[C@@H](C)C(=O)N[C@H](C(=O)N1CC[C@@H]2[C@H]1[C@@H](C(=O)Nc1ccc3ccccc3c1)CN2S(C)(=O)=O)C(C)(C)C` [Example 25, 4-[3,3-Dimethyl-2-(2-methylamino-propionylamino)-butyryl]-1-methanesulfonyl-octahydro-pyrrolo[3,2-b]pyrrole-3-carboxylic acid naphthalen-2-ylamide], the Kd at XIAP BIR-3 and on cIAP-1 BIR-3 was below 100 nM throughout. In the assay with SK-OV-3 cells, the CC50 was below 100 nM.

Turning to `CN[C@@H](C)C(=O)N[C@H](C(=O)N1CC[C@@H]2[C@H]1[C@@H](C(=O)Nc1cccc3cnccc13)CN2S(C)(=O)=O)C(C)(C)C` [Example 44, 4-[3,3-Dimethyl-2-(2-methylamino-propionylamino)-butyryl]-1-methanesulfonyl-octahydro-pyrrolo[3,2-b]pyrrole-3-carboxylic acid isoquinolin-5-ylamide], the Kd on XIAP BIR-3 is 100 to 1000 nM; at cIAP-1 BIR-3, below 100 nM. Moreover, in the assay with SK-OV-3 cells, the CC50 is below 100 nM.

For the compound `CN[C@@H](C)C(=O)N[C@H](C(=O)N1CC[C@@H]2[C@H]1[C@@H](C(=O)N[C@@H]1CCCc3ccccc31)CN2C(C)=O)C1CCCCC1` [Example 36, 1-Acetyl-4-[2-cyclohexyl-2-(2-methylamino-propionylamino)-acetyl]-octahydro-pyrrolo[3,2-b]pyrrole-3-carboxylic acid (1,2,3,4-tetrahydro-naphthalen-1-yl)-amide], the Kd on XIAP BIR-3 and at cIAP-1 BIR-3 was below 100 nM in each case. The CC50 with SK-OV-3 cells was below 100 nM.

With `CN[C@@H](C)C(=O)N[C@H](C(=O)N1CC[C@@H]2[C@H]1[C@@H](C(=O)NC(c1ccccc1)c1ccccc1)CN2S(C)(=O)=O)C1CCCCC1` [Example 6, 4-[2-Cyclohexyl-2-(2-methylamino-propionylamino)-acetyl]-1-methanesulfonyl-octahydro-pyrrolo[3,2-b]pyrrole-3-carboxylic acid benzhydryl-amide], the Kd at XIAP BIR-3 and on cIAP-1 BIR-3 was below 100 nM each time. The CC50 with SK-OV-3 cells is 100 to 1000 nM.

On to `CN[C@@H](C)C(=O)N[C@H](C(=O)N1CC[C@@H]2[C@H]1[C@@H](C(=O)Nc1cccc3ccncc13)CN2S(C)(=O)=O)C(C)(C)C` [Example 45, 4-[3,3-Dimethyl-2-(2-methylamino-propionylamino)-butyryl]-1-methanesulfonyl-octahydro-pyrrolo[3,2-b]pyrrole-3-carboxylic acid isoquinolin-8-ylamide], for which the Kd was 100 to 1000 nM at XIAP BIR-3 and below 100 nM on cIAP-1 BIR-3. The CC50 in the assay on SK-OV-3 cells is 100 to 1000 nM.

On to `CN[C@@H](C)C(=O)N[C@H](C(=O)N1CC[C@@H]2[C@H]1[C@@H](C(=O)N[C@@H]1CCc3ccccc31)CN2S(C)(=O)=O)C1CCCCC1` [Example 14, 4-[2-Cyclohexyl-2-(2-methylamino-propionylamino)-acetyl]-1-methanesulfonyl-octahydro-pyrrolo[3,2-b]pyrrole-3-carboxylic acid indan-1-ylamide], for which the Kd was 100 to 1000 nM on XIAP BIR-3 and below 100 nM at cIAP-1 BIR-3. Also, the CC50 in the assay on SK-OV-3 cells is below 100 nM.

With `CN[C@@H](C)C(=O)N[C@H](C(=O)N1CC[C@@H]2[C@H]1[C@@H](C(=O)Nc1ccc3ccccc3c1)CN2S(C)(=O)=O)C1CCCCC1` [Example 18, 4-[2-Cyclohexyl-2-(2-methylamino-propionylamino)-acetyl]-1-methanesulfonyl-octahydro-pyrrolo[3,2-b]pyrrole-3-carboxylic acid naphthalen-2-ylamide], the results for the Kd on XIAP BIR-3 and at cIAP-1 BIR-3 were 100 to 1000 nM and below 100 nM, respectively. In the assay on SK-OV-3 cells, the CC50 is below 100 nM.

Take `CN[C@@H](C)C(=O)N[C@H](C(=O)N1CC[C@@H]2[C@H]1[C@@H](C(=O)NCc1ccc(F)cc1)CN2S(C)(=O)=O)C1CCCCC1` [Example 3, 4-[2-Cyclohexyl-2-(2-methylamino-propionylamino)-acetyl]-1-methanesulfonyl-octahydro-pyrrolo[3,2-b]pyrrole-3-carboxylic acid 4-fluoro-benzylamide]: the Kd on XIAP BIR-3 and on cIAP-1 BIR-3 was below 100 nM in each case. Further, the CC50 in the assay on SK-OV-3 cells is below 100 nM.

Take `CN[C@@H](C)C(=O)N[C@H](C(=O)N1CC[C@@H]2[C@H]1[C@@H](C(=O)Nc1cc(C)nc3ccccc13)CN2S(C)(=O)=O)C(C)(C)C` [Example 48, 4-[3,3-Dimethyl-2-(2-methylamino-propionylamino)-butyryl]-1-methanesulfonyl-octahydro-pyrrolo[3,2-b]pyrrole-3-carboxylic acid (2-methyl-quinolin-4-yl)-amide]: the Kd on XIAP BIR-3 and at cIAP-1 BIR-3 was below 100 nM in each case. The CC50 in the assay with SK-OV-3 cells was below 100 nM.

On to `CN[C@@H](C)C(=O)N[C@H](C(=O)N1CC[C@@H]2[C@H]1[C@@H](C(=O)Nc1cccc3ccccc13)CN2C(=O)CNC(=O)C(=O)NCC(=O)N1C[C@H](C(=O)Nc2cccc3ccccc23)[C@@H]2[C@H]1CCN2C(=O)[C@@H](NC(=O)[C@H](C)NC)C(C)(C)C)C(C)(C)C` [Example 53, N,N′-Bis-{2-[4-[3,3-dimethyl-2-(2-methylamino-propionylamino)-butyryl]-3-(naphthalen-1-ylcarbamoyl)-hexahydro-pyrrolo[3,2-b]pyrrol-1-yl]-2-oxo-ethyl}-oxalamide], for which the Kd on XIAP BIR-3 and at cIAP-1 BIR-3 was below 100 nM in each case. Besides, in the assay with SK-OV-3 cells, the CC50 is below 100 nM.

For the compound `CN[C@@H](C)C(=O)N[C@H](C(=O)N1CC[C@@H]2[C@H]1[C@@H](C(=O)Nc1nccc3ccccc13)CN2S(C)(=O)=O)C(C)(C)C` [Example 49, 4-[3,3-Dimethyl-2-(2-methylamino-propionylamino)-butyryl]-1-methanesulfonyl-octahydro-pyrrolo[3,2-b]pyrrole-3-carboxylic acid isoquinolin-1-ylamide], the Kd on XIAP BIR-3 and on cIAP-1 BIR-3 was below 100 nM each time. Also, the CC50 in the assay with SK-OV-3 cells was below 100 nM.

In the case of `CN[C@@H](C)C(=O)N[C@H](C(=O)N1CC[C@@H]2[C@H]1[C@@H](C(=O)N[C@@H]1CCCc3ccccc31)CN2S(C)(=O)=O)C(C)(C)C` [Example 27, 4-[3,3-Dimethyl-2-(2-methylamino-propionylamino)-butyryl]-1-methanesulfonyl-octahydro-pyrrolo[3,2-b]pyrrole-3-carboxylic acid (1,2,3,4-tetrahydro-naphthalen-1-yl)-amide], the Kd at XIAP BIR-3 and on cIAP-1 BIR-3 was below 100 nM each time. For the same compound, the CC50 with SK-OV-3 cells was below 100 nM.

In the case of `CN[C@@H](C)C(=O)N[C@H](C(=O)N1CC[C@@H]2[C@H]1[C@@H](C(=O)Nc1cccc3ccccc13)CN2S(C)(=O)=O)C(C)(C)C` [Example 24, 4-[3,3-Dimethyl-2-(2-methylamino-propionylamino)-butyryl]-1-methanesulfonyl-octahydro-pyrrolo[3,2-b]pyrrole-3-carboxylic acid naphthalen-1-ylamide], the Kd at XIAP BIR-3 and on cIAP-1 BIR-3 was below 100 nM in each case. Moreover, in the assay with SK-OV-3 cells, the CC50 is below 100 nM.

These data come from patent US8481495B2 (TetraLogic Pharmaceuticals Corporation, priority 2009, dated 2013).
